The OligoGym collection
Oligonucleotides are given in HELM: sugar(base)linkage, 5' to 3'; d 2'-deoxyribose, r ribose, m 2'-O-methylribose, p phosphate. ss, as = sense and antisense strand
Also: test concentration or dose not given here.

These substances were tested against TMEM63B (assay: reporter assay of Huesken 2005). Settings: siRNA.
Work on “RNA1{r(C)p.r(U)p.r(G)p.r(C)p.r(C)p.r(G)p.r(G)p.r(C)p.r(C)p.r(A)p.r(A)p.r(G)p.r(C)p.r(U)p.r(G)p.r(G)p.r(A)p.r(C)p.r(A)p.d(T)p.d(T)}|RNA2{r(U)p.r(G)p.r(U)p.r(C)p.r(C)p.r(A)p.r(G)p.r(C)p.r(U)p.r(U)p.r(G)p.r(G)p.r(C)p.r(C)p.r(G)p.r(G)p.r(C)p.r(A)p.r(G)p.d(G)p.d(T)}$$$RNA1{StrandType:ss}|RNA2{StrandType:as}$” yielded a normalised inhibition (eCFP-eYFP dual reporter) of 65.2%. “RNA1{r(C)p.r(U)p.r(G)p.r(C)p.r(G)p.r(C)p.r(U)p.r(G)p.r(C)p.r(C)p.r(U)p.r(G)p.r(G)p.r(U)p.r(C)p.r(A)p.r(U)p.r(C)p.r(A)p.d(T)p.d(T)}|RNA2{r(U)p.r(G)p.r(A)p.r(U)p.r(G)p.r(A)p.r(C)p.r(C)p.r(A)p.r(G)p.r(G)p.r(C)p.r(A)p.r(G)p.r(C)p.r(G)p.r(C)p.r(A)p.r(G)p.d(C)p.d(C)}$$$RNA1{StrandType:ss}|RNA2{StrandType:as}$” was tested, and the normalised inhibition (eCFP-eYFP dual reporter) was 66.1%. Substance “RNA1{r(C)p.r(U)p.r(G)p.r(C)p.r(U)p.r(C)p.r(A)p.r(U)p.r(G)p.r(U)p.r(A)p.r(C)p.r(A)p.r(U)p.r(G)p.r(A)p.r(U)p.r(C)p.r(C)p.d(T)p.d(T)}|RNA2{r(G)p.r(G)p.r(A)p.r(U)p.r(C)p.r(A)p.r(U)p.r(G)p.r(U)p.r(A)p.r(C)p.r(A)p.r(U)p.r(G)p.r(A)p.r(G)p.r(C)p.r(A)p.r(G)p.d(G)p.d(C)}$$$RNA1{StrandType:ss}|RNA2{StrandType:as}$” has a normalised inhibition (eCFP-eYFP dual reporter) of 49%. For “RNA1{r(C)p.r(U)p.r(G)p.r(C)p.r(U)p.r(G)p.r(A)p.r(A)p.r(G)p.r(C)p.r(A)p.r(C)p.r(C)p.r(U)p.r(G)p.r(G)p.r(U)p.r(A)p.r(G)p.d(T)p.d(T)}|RNA2{r(C)p.r(U)p.r(A)p.r(C)p.r(C)p.r(A)p.r(G)p.r(G)p.r(U)p.r(G)p.r(C)p.r(U)p.r(U)p.r(C)p.r(A)p.r(G)p.r(C)p.r(A)p.r(G)p.d(C)p.d(A)}$$$RNA1{StrandType:ss}|RNA2{StrandType:as}$”, the normalised inhibition (eCFP-eYFP dual reporter) was 75%. For “RNA1{r(C)p.r(U)p.r(G)p.r(G)p.r(U)p.r(C)p.r(A)p.r(U)p.r(C)p.r(A)p.r(C)p.r(C)p.r(A)p.r(U)p.r(C)p.r(G)p.r(U)p.r(C)p.r(A)p.d(T)p.d(T)}|RNA2{r(U)p.r(G)p.r(A)p.r(C)p.r(G)p.r(A)p.r(U)p.r(G)p.r(G)p.r(U)p.r(G)p.r(A)p.r(U)p.r(G)p.r(A)p.r(C)p.r(C)p.r(A)p.r(G)p.d(G)p.d(A)}$$$RNA1{StrandType:ss}|RNA2{StrandType:as}$”, the normalised inhibition (eCFP-eYFP dual reporter) was 67%. “RNA1{r(C)p.r(U)p.r(G)p.r(U)p.r(A)p.r(C)p.r(U)p.r(U)p.r(C)p.r(A)p.r(C)p.r(A)p.r(A)p.r(A)p.r(C)p.r(C)p.r(U)p.r(C)p.r(C)p.d(T)p.d(T)}|RNA2{r(G)p.r(G)p.r(A)p.r(G)p.r(G)p.r(U)p.r(U)p.r(U)p.r(G)p.r(U)p.r(G)p.r(A)p.r(A)p.r(G)p.r(U)p.r(A)p.r(C)p.r(A)p.r(G)p.d(C)p.d(T)}$$$RNA1{StrandType:ss}|RNA2{StrandType:as}$” was tested, and the normalised inhibition (eCFP-eYFP dual reporter) was 57.4%. Work on “RNA1{r(C)p.r(U)p.r(G)p.r(U)p.r(G)p.r(G)p.r(A)p.r(C)p.r(C)p.r(C)p.r(C)p.r(A)p.r(G)p.r(A)p.r(A)p.r(G)p.r(C)p.r(A)p.r(A)p.d(T)p.d(T)}|RNA2{r(U)p.r(U)p.r(G)p.r(C)p.r(U)p.r(U)p.r(C)p.r(U)p.r(G)p.r(G)p.r(G)p.r(G)p.r(U)p.r(C)p.r(C)p.r(A)p.r(C)p.r(A)p.r(G)p.d(T)p.d(A)}$$$RNA1{StrandType:ss}|RNA2{StrandType:as}$” yielded a normalised inhibition (eCFP-eYFP dual reporter) of 75.4%. “RNA1{r(C)p.r(U)p.r(U)p.r(C)p.r(C)p.r(U)p.r(G)p.r(U)p.r(A)p.r(U)p.r(C)p.r(U)p.r(G)p.r(C)p.r(U)p.r(G)p.r(C)p.r(U)p.r(C)p.d(T)p.d(T)}|RNA2{r(G)p.r(A)p.r(G)p.r(C)p.r(A)p.r(G)p.r(C)p.r(A)p.r(G)p.r(A)p.r(U)p.r(A)p.r(C)p.r(A)p.r(G)p.r(G)p.r(A)p.r(A)p.r(G)p.d(G)p.d(C)}$$$RNA1{StrandType:ss}|RNA2{StrandType:as}$” gave a normalised inhibition (eCFP-eYFP dual reporter) of 75.8%. For “RNA1{r(C)p.r(U)p.r(U)p.r(C)p.r(U)p.r(U)p.r(U)p.r(U)p.r(C)p.r(C)p.r(A)p.r(C)p.r(C)p.r(A)p.r(U)p.r(G)p.r(C)p.r(G)p.r(C)p.d(T)p.d(T)}|RNA2{r(G)p.r(C)p.r(G)p.r(C)p.r(A)p.r(U)p.r(G)p.r(G)p.r(U)p.r(G)p.r(G)p.r(A)p.r(A)p.r(A)p.r(A)p.r(G)p.r(A)p.r(A)p.r(G)p.d(A)p.d(G)}$$$RNA1{StrandType:ss}|RNA2{StrandType:as}$”, the normalised inhibition (eCFP-eYFP dual reporter) was 39.7%. Work on “RNA1{r(C)p.r(U)p.r(U)p.r(G)p.r(A)p.r(A)p.r(A)p.r(U)p.r(C)p.r(A)p.r(G)p.r(G)p.r(G)p.r(A)p.r(A)p.r(C)p.r(A)p.r(A)p.r(C)p.d(T)p.d(T)}|RNA2{r(G)p.r(U)p.r(U)p.r(G)p.r(U)p.r(U)p.r(C)p.r(C)p.r(C)p.r(U)p.r(G)p.r(A)p.r(U)p.r(U)p.r(U)p.r(C)p.r(A)p.r(A)p.r(G)p.d(T)p.d(T)}$$$RNA1{StrandType:ss}|RNA2{StrandType:as}$” yielded a normalised inhibition (eCFP-eYFP dual reporter) of 71.1%. “RNA1{r(C)p.r(U)p.r(U)p.r(U)p.r(C)p.r(C)p.r(U)p.r(C)p.r(A)p.r(U)p.r(C)p.r(U)p.r(U)p.r(C)p.r(A)p.r(U)p.r(G)p.r(G)p.r(U)p.d(T)p.d(T)}|RNA2{r(A)p.r(C)p.r(C)p.r(A)p.r(U)p.r(G)p.r(A)p.r(A)p.r(G)p.r(A)p.r(U)p.r(G)p.r(A)p.r(G)p.r(G)p.r(A)p.r(A)p.r(A)p.r(G)p.d(T)p.d(G)}$$$RNA1{StrandType:ss}|RNA2{StrandType:as}$” showed a normalised inhibition (eCFP-eYFP dual reporter) of 72.7%. With “RNA1{r(C)p.r(U)p.r(U)p.r(U)p.r(U)p.r(C)p.r(C)p.r(A)p.r(C)p.r(C)p.r(A)p.r(U)p.r(G)p.r(C)p.r(G)p.r(C)p.r(A)p.r(C)p.r(G)p.d(T)p.d(T)}|RNA2{r(C)p.r(G)p.r(U)p.r(G)p.r(C)p.r(G)p.r(C)p.r(A)p.r(U)p.r(G)p.r(G)p.r(U)p.r(G)p.r(G)p.r(A)p.r(A)p.r(A)p.r(A)p.r(G)p.d(A)p.d(A)}$$$RNA1{StrandType:ss}|RNA2{StrandType:as}$” the normalised inhibition (eCFP-eYFP dual reporter) was 0%. For “RNA1{r(G)p.r(A)p.r(C)p.r(C)p.r(G)p.r(G)p.r(U)p.r(A)p.r(U)p.r(G)p.r(A)p.r(G)p.r(C)p.r(G)p.r(U)p.r(C)p.r(U)p.r(C)p.r(A)p.d(T)p.d(T)}|RNA2{r(U)p.r(G)p.r(A)p.r(G)p.r(A)p.r(C)p.r(G)p.r(C)p.r(U)p.r(C)p.r(A)p.r(U)p.r(A)p.r(C)p.r(C)p.r(G)p.r(G)p.r(U)p.r(C)p.d(A)p.d(T)}$$$RNA1{StrandType:ss}|RNA2{StrandType:as}$”, the normalised inhibition (eCFP-eYFP dual reporter) was 99%. “RNA1{r(G)p.r(A)p.r(C)p.r(U)p.r(U)p.r(C)p.r(A)p.r(A)p.r(C)p.r(G)p.r(U)p.r(G)p.r(U)p.r(G)p.r(U)p.r(A)p.r(A)p.r(A)p.r(U)p.d(T)p.d(T)}|RNA2{r(A)p.r(U)p.r(U)p.r(U)p.r(A)p.r(C)p.r(A)p.r(C)p.r(A)p.r(C)p.r(G)p.r(U)p.r(U)p.r(G)p.r(A)p.r(A)p.r(G)p.r(U)p.r(C)p.d(C)p.d(T)}$$$RNA1{StrandType:ss}|RNA2{StrandType:as}$” was tested, and the normalised inhibition (eCFP-eYFP dual reporter) was 102%. “RNA1{r(G)p.r(A)p.r(C)p.r(U)p.r(U)p.r(U)p.r(G)p.r(A)p.r(C)p.r(C)p.r(A)p.r(A)p.r(A)p.r(G)p.r(G)p.r(G)p.r(A)p.r(C)p.r(A)p.d(T)p.d(T)}|RNA2{r(U)p.r(G)p.r(U)p.r(C)p.r(C)p.r(C)p.r(U)p.r(U)p.r(U)p.r(G)p.r(G)p.r(U)p.r(C)p.r(A)p.r(A)p.r(A)p.r(G)p.r(U)p.r(C)p.d(A)p.d(A)}$$$RNA1{StrandType:ss}|RNA2{StrandType:as}$” showed a normalised inhibition (eCFP-eYFP dual reporter) of 89.5%. “RNA1{r(G)p.r(A)p.r(G)p.r(A)p.r(G)p.r(G)p.r(C)p.r(G)p.r(C)p.r(A)p.r(A)p.r(C)p.r(G)p.r(U)p.r(G)p.r(A)p.r(A)p.r(G)p.r(C)p.d(T)p.d(T)}|RNA2{r(G)p.r(C)p.r(U)p.r(U)p.r(C)p.r(A)p.r(C)p.r(G)p.r(U)p.r(U)p.r(G)p.r(C)p.r(G)p.r(C)p.r(C)p.r(U)p.r(C)p.r(U)p.r(C)p.d(G)p.d(G)}$$$RNA1{StrandType:ss}|RNA2{StrandType:as}$” showed a normalised inhibition (eCFP-eYFP dual reporter) of 56.8%. “RNA1{r(G)p.r(A)p.r(G)p.r(G)p.r(C)p.r(G)p.r(C)p.r(A)p.r(A)p.r(C)p.r(G)p.r(U)p.r(G)p.r(A)p.r(A)p.r(G)p.r(C)p.r(G)p.r(G)p.d(T)p.d(T)}|RNA2{r(C)p.r(C)p.r(G)p.r(C)p.r(U)p.r(U)p.r(C)p.r(A)p.r(C)p.r(G)p.r(U)p.r(U)p.r(G)p.r(C)p.r(G)p.r(C)p.r(C)p.r(U)p.r(C)p.d(T)p.d(C)}$$$RNA1{StrandType:ss}|RNA2{StrandType:as}$” showed a normalised inhibition (eCFP-eYFP dual reporter) of 59.5%. Substance “RNA1{r(G)p.r(A)p.r(U)p.r(A)p.r(C)p.r(U)p.r(G)p.r(U)p.r(G)p.r(G)p.r(A)p.r(C)p.r(C)p.r(C)p.r(C)p.r(A)p.r(G)p.r(A)p.r(A)p.d(T)p.d(T)}|RNA2{r(U)p.r(U)p.r(C)p.r(U)p.r(G)p.r(G)p.r(G)p.r(G)p.r(U)p.r(C)p.r(C)p.r(A)p.r(C)p.r(A)p.r(G)p.r(U)p.r(A)p.r(U)p.r(C)p.d(T)p.d(G)}$$$RNA1{StrandType:ss}|RNA2{StrandType:as}$” has a normalised inhibition (eCFP-eYFP dual reporter) of 73.8%. For “RNA1{r(G)p.r(C)p.r(A)p.r(A)p.r(C)p.r(G)p.r(C)p.r(C)p.r(A)p.r(U)p.r(G)p.r(G)p.r(A)p.r(C)p.r(C)p.r(U)p.r(G)p.r(C)p.r(U)p.d(T)p.d(T)}|RNA2{r(A)p.r(G)p.r(C)p.r(A)p.r(G)p.r(G)p.r(U)p.r(C)p.r(C)p.r(A)p.r(U)p.r(G)p.r(G)p.r(C)p.r(G)p.r(U)p.r(U)p.r(G)p.r(C)p.d(C)p.d(G)}$$$RNA1{StrandType:ss}|RNA2{StrandType:as}$”, the normalised inhibition (eCFP-eYFP dual reporter) was 71.1%. “RNA1{r(G)p.r(C)p.r(A)p.r(A)p.r(C)p.r(G)p.r(U)p.r(G)p.r(A)p.r(A)p.r(G)p.r(C)p.r(G)p.r(G)p.r(C)p.r(A)p.r(U)p.r(C)p.r(A)p.d(T)p.d(T)}|RNA2{r(U)p.r(G)p.r(A)p.r(U)p.r(G)p.r(C)p.r(C)p.r(G)p.r(C)p.r(U)p.r(U)p.r(C)p.r(A)p.r(C)p.r(G)p.r(U)p.r(U)p.r(G)p.r(C)p.d(G)p.d(C)}$$$RNA1{StrandType:ss}|RNA2{StrandType:as}$” showed a normalised inhibition (eCFP-eYFP dual reporter) of 72.4%.
